Values of other authors in patent publication US20240173376A1, “TREM-1 INHIBITORS FOR THE TREATMENT OF MARFAN SYNDROME” (INSERM (INSTITUT NATIONAL DE LA SANTÉ ET DE LA RECHERCHE …, priority 2021, published 2024).

Experiments:
[1] = Marfan patients (Shores et al 1994; Ladouceur et al 2007)
AT1R [2] = conditions: animal model of Marfan's disease (Hibashi et al, Science, 2006)
AT1R [3] = biological target: T1, AT1R (Homo sapiens, UniProt P30556)
T1 construct: host or cells: patients in randomized clinical studies
T1 sequence (P30556 1-359): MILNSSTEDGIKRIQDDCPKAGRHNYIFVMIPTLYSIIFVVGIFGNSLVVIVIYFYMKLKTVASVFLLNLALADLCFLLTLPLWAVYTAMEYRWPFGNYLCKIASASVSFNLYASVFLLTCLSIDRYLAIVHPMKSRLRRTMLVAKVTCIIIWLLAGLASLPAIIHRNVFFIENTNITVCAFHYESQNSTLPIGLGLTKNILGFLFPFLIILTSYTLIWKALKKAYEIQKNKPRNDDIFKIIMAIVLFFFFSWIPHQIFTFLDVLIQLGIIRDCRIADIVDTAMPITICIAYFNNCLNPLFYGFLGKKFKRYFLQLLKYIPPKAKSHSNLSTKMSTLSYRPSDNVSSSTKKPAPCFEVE

Row | Compound | aortic dilatation and risk of dissection [1] | arterial wall architecture and aortic dilatation (AT1R [2]) | benefit in humans (AT1R [3]; randomized, double-blind, multicenter study (Milleron et al, Eur Heart J)) | progression of aortic dilatation in humans (AT1R [3]; study with comparable methodology, N=192 (Mullen et al. Lancet 2019))
1 | CC(C)NCC(O)COc1cccc2ccccc12 (stereo not shown) [propranolol] | limits aortic dilatation and the risk of dissection | – | – | –
2 | CCCCc1nc(Cl)c(CO)n1Cc1ccc(-c2ccccc2-c2nn[nH]n2)cc1 [Losartan] | – | improves arterial wall architecture and reduces aortic dilatation | no benefit | a benefit
